From article PMC6362118, “Pharmacophore-guided discovery of CDC25 inhibitors causing cell cycle arrest and tumor regression” (Scientific Reports, 2019)

Key:
[1] = test system: Apc/K-Ras intestinal organoids; test: Growth and differentiation of Apc/K-Ras intestinal organoids; format: cell-based, mouse
Description: Intestinal crypts were isolated from Apc/K-Ras animals bearing Apc^1638N and villin-driven K-Ras^G12V alleles with slight modifications[36] of a previously described method. Briefly, crypts were isolated and purified, embedded in 50 μl matrigel drops (Corning, 356231) and overlaid with 500 μl organoid medium Advanced DMEM/F12 (Life Technologies, 11320-082) containing 2 mM GlutaMAX (Life Technologies, 35050-061), 10 mM HEPES buffer (Sigma, 83264-100ML-F), 0.5 U/ml Penicillin/Streptomycin (Life Technologies, 15070-063), N2 (Life Technologies, 17502-048), B27 (Life Technologies, 12587-010)]. Organoids were expanded for 5 days in growth factor supplemented medium containing 50 ng/ml mEGF (Life Technologies, PMG8041), 100 ng/ml mNoggin (Peprotech, 250–38) and 500 ng/ml hRSPO1 (R&D, 4645-RS-025). EGF and R-spondin were subsequently removed to select for organoids that had lost the wild-type Apc copy. The medium was changed every 2 days. Established mutant lines were passaged every four days by mechanical disruption with a bent P1000 pipette tip.
(§1) 34 SUPPLEMENTARY MATERIALS AND METHODS
(§2) 36 Antibodies and chemicals - The following antibodies were used for Western blot:
(§3) 37 Rabbit monoclonal antibodies to CDK1-pThr14 (#2543), CDK1-pTyr15 (#9111), Histone
(§4) 39 Technology (Beverly, MA, USA). Mouse monoclonal antibodies to CDC25A (F-6, sc-
(§5) 41 from Santa Cruz Biotechnology (Santa Cruz, CA, USA). The mouse monoclonal
(§6) 42 antibody MPM2 (05-368) was from Upstate (Lake Placid, NY, USA). The mouse
(§7) 43 monoclonal antibody to the HA tag (HA.11, MMS-101P) was from BioLegend (S. Diego,
(§8) 44 CA, USA). The rabbit polyclonal antibody to PARP-1 (#227244) was obtained from
(§9) 45 Abcam. HRP-conjugated anti-mouse and anti-rabbit secondary antibodies were obtained
(§10) 46 from GE-Healthcare (Otelfingen, Switzerland). HRP-conjugated IgG-k-BP was
(§11) 47 purchased from Santa Cruz Biotechnology (Santa Cruz, CA, USA).
(§12) 48 The following antibodies were used for immunofluorescence on a Zeiss LSM 710
(§13) 49 confocal microscope: mouse monoclonal to beta-catenin (Cl. 14, BD transduction Lab.),
50 rabbit polyclonal to lysozyme (A0099, Dako). […]

[2] = test system: U2OS Tet-OFF cells expressing HA-CDC25A; test: Cell viability of U2OS Tet-OFF cells overexpressing HA-CDC25A; format: cell-based; details: grown in the absence of tetracycline (HA-CDC25A induced)
Description: 65 Enzymatic assays - CDC25A, CDC25B and CDC25C were appropriately diluted in 10
66 mM Tris-HCl pH 8.0, 50 mM NaCl and assayed in 20 mM Tris-HCl pH 8.0, 75 mM
67 NaCl, 0.5 mM EGTA, 1 mM DTT, 0.1 mg/ml BSA and defined concentrations of
68 compounds. Reactions were started by addition of the substrate OMFP (0.1 mM). Assays
69 were carried out at room temperature in duplicate or triplicate using transparent-bottom,
(§14) 70 V-shaped 96 well plates and read at defined intervals on a Molecular Devices
71 SpectraMax microplate reader (ex: 490 nm / em: 525 nm). IC50 and kinetic parameters
72 calculated from Lineweaver-Burk double-reciprocal plots of the data were obtained using
73 GraphPad Prism software.
75 Cell culture - Wild-type HeLa and Kyoto HeLa cells stably expressing mCherry-H2B
76 were maintained in DMEM+L-Glutamine (Gibco, Life Technologies, USA)
77 supplemented with 5% fetal calf serum (FCS) (Gibco) and penicillin-streptomycin (100
78 U/ml - 100 µg/ml) (Gibco). A549 and Colo741 were grown and maintained like HeLa
79 cells but with 10% FCS. HCT116 were maintained in McCoy’s medium supplemented
80 with 10% FCS and penicillin-streptomycin. U2OS-Tet-OFF cells expressing HA-CDC25
81 were grown and maintained in DMEM+L-Glutamine, 10% Tet-free FCS and penicillin- […]
(§15) 88 assessed as described 4. Data were plotted with Prism 7® and analyzed by non-linear […]

[3] = target: T1, CDC25C (Homo sapiens, UniProt P30307); test: Enzymatic assay (OMFP substrate) on recombinant CDC25C; format: biochemical; details: mixed-model inhibition equation
T1 construct: GST (pGEX vector) (N); made in house; host or cells: E. coli BL21
From the text: as §1, §2, §3, §4, §5, §6, §7, §8, §9, §10, §11, §12, §13
(§16) 50 rabbit polyclonal to lysozyme (A0099, Dako). Secondary antibodies were: Alexa 488 […]
as §14
(§17) 71 SpectraMax microplate reader (ex: 490 nm / em: 525 nm). […]
(§18) 72 calculated from Lineweaver-Burk double-reciprocal plots of the data were obtained using […]
as §15

[4] = target: T2, CDC25B (Homo sapiens, UniProt P30305); test: Enzymatic assay (OMFP substrate) on recombinant CDC25B; format: biochemical; details: mixed-model inhibition equation
T2 construct: GST (pGEX vector) (N); made in house; host or cells: E. coli BL21
From the text: as §1, §2, §3, §4, §5, §6, §7, §8, §9, §10, §11, §12, §13, §16, §14, §17, §18, §15

T2 sequence (P30305 whole entry): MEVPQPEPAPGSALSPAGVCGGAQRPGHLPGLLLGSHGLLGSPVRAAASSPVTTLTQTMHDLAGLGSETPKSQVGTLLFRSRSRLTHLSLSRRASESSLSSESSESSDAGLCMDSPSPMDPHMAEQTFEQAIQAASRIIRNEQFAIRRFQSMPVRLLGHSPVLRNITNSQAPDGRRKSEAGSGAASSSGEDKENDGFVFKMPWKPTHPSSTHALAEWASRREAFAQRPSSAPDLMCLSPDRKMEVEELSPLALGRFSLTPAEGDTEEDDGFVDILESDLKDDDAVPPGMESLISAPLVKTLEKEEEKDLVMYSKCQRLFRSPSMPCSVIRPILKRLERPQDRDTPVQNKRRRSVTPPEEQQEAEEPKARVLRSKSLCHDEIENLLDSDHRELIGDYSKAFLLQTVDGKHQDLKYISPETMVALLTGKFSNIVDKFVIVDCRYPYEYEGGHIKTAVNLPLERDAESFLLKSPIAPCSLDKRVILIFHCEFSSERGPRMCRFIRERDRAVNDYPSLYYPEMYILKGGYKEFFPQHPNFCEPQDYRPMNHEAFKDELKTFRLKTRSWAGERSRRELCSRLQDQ
T1 sequence (P30307 whole entry): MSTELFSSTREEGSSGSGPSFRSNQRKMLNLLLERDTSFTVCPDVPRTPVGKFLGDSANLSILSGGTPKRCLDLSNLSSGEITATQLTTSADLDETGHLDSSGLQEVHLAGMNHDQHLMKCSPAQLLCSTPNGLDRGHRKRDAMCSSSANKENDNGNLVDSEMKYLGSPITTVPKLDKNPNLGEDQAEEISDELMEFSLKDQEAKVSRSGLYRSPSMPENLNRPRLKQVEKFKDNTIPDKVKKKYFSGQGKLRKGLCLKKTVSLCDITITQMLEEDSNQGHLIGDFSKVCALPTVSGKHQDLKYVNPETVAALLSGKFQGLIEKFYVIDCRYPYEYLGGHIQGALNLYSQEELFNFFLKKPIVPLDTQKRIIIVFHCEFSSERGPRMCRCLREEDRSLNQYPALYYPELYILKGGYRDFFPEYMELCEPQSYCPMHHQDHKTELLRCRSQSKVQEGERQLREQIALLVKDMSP

Row | Ki [3] [nM] | Ki [4] [nM] | SMILES | expression of lysozyme (differentiation marker), confocal immunofluorescence ([1]; 5 μM) | organoid morphology ([1]; 5 μM, 48 h) | organoid death ([1]; higher doses (data not shown)) | sensitivity of CDC25A overexpressing cells (viability) [2]
1 | – | – | O=C1C(c2ccc(O)cc2O)=CC(=O)c2c(O)cccc21 [UPD-176, 5-hydroxy-2-(2,4-dihydroxyphenyl)naphthalene-1,4-dione] | augmented expression of lysozyme | growing spheroids partially invaginated | massive death | remained sensitive
2 | 850 ± 300 | 440 ± 100 | COc1cccc(SC2=CC(=O)c3cccc(O)c3C2=O)c1 [UPD-795, 2-(3-methoxyphenylthio)-8-hydroxynaphthalene-1,4-dione] | – | – | – | –
